According to US20250040935A1, “FABRICATION OF RADIOPAQUE RESORBABLE HYDROGEL BEADS VIA MICROFLUIDICS FOR CATHETER EMBOLIZATION APPLICATIONS” (Saint Louis University, priority 2023, published 2025):

Assays:
Format in all cases: physicochemical
[1] = Apalutamide and docetaxel microsphere release study; conditions: within the first 24 hrs; microspheres, PEG and 20% w/v 1 μm BaSO4 groups
Method: Barium microspheres (20% w/v) were fabricated using the T-junction and then frozen overnight at −80 degrees Celsius. The next morning the microspheres were lyophilized for 1 day. Once the microspheres were fully lyophilized, they were then swollen in 10 μL 0.5 mg/mL docetaxel and apalutamide for 1 day. The next day, the excess drug was removed from the centrifuge tube and 500 μL 80:20 ethanol to DI water was added. A release study was then preformed as described above and the release profile for 20% barium microspheres was obtained.

[2] = Apalutamide and docetaxel bulk release from hydrogels; conditions: after 24 h; from both PEG-only and 20% BaSO4 hydrogel
Method: To determine bulk release of drugs from hydrogels, acridine orange (AO), docetaxel, bicalutamide, and apalutamide release into a sink volume was measured. Samples from the sink volume were taken over time and then the amount of sample volume that was taken out was replaced with the same amount of sink solution. The sink solution for AO experiments was PBS and the sink solution used for docetaxel, bicalutamide, and apalutamide was 80:20 ethanol to DI water. The absorbance of each sample solution was measured to calculate the concentration of drug in the sample solution. The equation used to calculate these concentrations was from the standard curves obtained for each drug or acridine orange (AO). The concentrations of drugs or AO in solution allowed for quantifying each drug release profile as well as their diffusion coefficient from a hydrogel. Apalutamide (0.5 mg/mL) stock solution was prepared in 80:20 DMSO or ethanol and DI water. A standard curve was constructed for apalutamide by creating samples of known concentrations and measuring the absorbance at 260 nm of each sample. Hydrogels were then fabricated with conditions: PEG+Doc+Apa and PEG+BaSO4+Doc+Apa (Table 6). […] Absorbances of 230 nm and 260 nm were measured for each sample to be able to obtain concentrations of docetaxel and apalutamide released into solution.

[3] = Docetaxel release from PEG gels/microspheres (Example 1); conditions: in the first 60 minutes, loaded at 0.1 mg/ml, released in 20:80 anhydrous ethanol:di-water
Method: Docetaxel release and in vivo efficacy. Docetaxel was released from the PEG microspheres over several hours, with 60% released in the first 60 minutes (FIG. 2A). For bulk release experiments, docetaxel was dissolved in anhydrous ethanol, loaded in PEG gels at 0.1 mg/ml and released in a 20:80 anhydrous ethanol:di-water. Release was followed by absorbance measurements at 220 nm. […] PC3 cells (2×10^6 cells) were injected and grown to ˜120 mm^3 tumor volume prior to treatment.

SMILES: CNC(=O)c1ccc(N2C(=S)N(c3cnc(C#N)c(C(F)(F)F)c3)C(=O)C23CCC3)cc1F [Apalutamide]
- initial burst release [1]: ~80%

SMILES: CC(=O)O[C@@]12CO[C@@H]1C[C@H](O)[C@@]1(C)C(=O)[C@H](O)C3=C(C)[C@@H](OC(=O)[C@H](O)[C@@H](NC(=O)OC(C)(C)C)c4ccccc4)C[C@@](O)([C@@H](OC(=O)c4ccccc4)[C@H]21)C3(C)C [Docetaxel]
- drug released [2]: ~90%
- initial burst release [1]: ~90%
- docetaxel released [3]: 60%
